Key:
[1] = Volatility of 30% by weight aqueous amine solutions (Example 4); assay type: physicochemical; details: 30% by weight aqueous solutions, 50° C.
[2] = pKa of the amino groups by titration with hydrochloric acid (Example 5); assay type: physicochemical; details: 20° C.

pKA value, comparison in words [2]: greater than that of MDEA
Compound: CC(C)(C)NCC(O)CO (centres unmarked) [TBAPD, 3-(tert-butylamino)propane-1,2-diol]
volatility, comparison in words [1]: lower volatility compared to the M3ETB, TBAEE and MDEA
